From patent US20030228281A1, “Use of mutant herpes viruses and anticancer agents in the treatment of cancer” (priority 2000, published 2003)

Experiments:
[1] = test system: β-galactosidase expression; assay: β-galactosidase activity (lacZ reporter gene in G207) in infected cells; type: cell-based; details: HCT8, 2 pfu G207 per cell, 10 nM FUdR, 1 mM HU from 8 hours pi, 36 hours pi
Description: FIG. 2 depicts the results of experiments showing the influence of FUdR on β galactosidase expression following infection with G207. Cells (2×10^4) were plated in 24-well plates, and were infected with G207 at an MOI of 0.01 in presence (10 nM, oblique; 100 nM, black) and absence (white) of FUdR. At day 3 following infection, cells were lysed and total β-galactosidase activity of cell lysates was measured (A). Cell counts for each condition were determined in additional wells by trypan blue exclusion and specific activity was calculated by referring total activity to viable cell number (B). All assays were performed in triplicates (avg ± SEM). For lacZ staining 3×10^5 cells were plated onto 25 cm^2 flasks. Twelve hours later cells were infected with G207 in the presence and absence of FUdR under the same conditions as described above. At day 3 pi, cytospin slides were prepared and stained with X-gal for lacZ expression.
FIG. 4 depicts the results of experiments showing the effects of FUdR and HU on viral replication. […] Viral titers (A) and β-galactosidase activity (B) of the lysate were determined. […]
Activity of β-galactosidase was determined by monitoring the conversion of o-nitrophenyl galactoside (ONPG) to o-nitrophenol and galactose (β-Galactosidase Reporter Assay, Pierce, Rockford, Ill.). […] The reaction rate was determined by spectrophotometric measurement of o-nitrophenol at λ=405 nm. […]

G207 = assay: Effect of HU and FUdR on G207 replication in HCT8 cells; type: cell-based, herpes simplex virus (HSV) type 1
Description: FIG. 4 depicts the results of experiments showing the effects of FUdR and HU on viral replication. HCT8 cells were infected with 2 pfu of G207 per cell. After adsorption of 1 hour at 37° C. inoculum was removed, cells were washed with PBS, and medium containing 10 nM FUdR or control medium without FUdR was added. At 8 hours pi, infected cells in presence and absence of FUdR were exposed to 1 mM HU. At 36 hours pi cells and supernatant were harvested and lysates were prepared by three cycles of freezing and thawing. Viral titers (A) and β-galactosidase activity (B) of the lysate were determined. All assays were performed in triplicates for each condition (avg ± SEM).
Vero cultures were carried for at least one subculture in E-MEM, 2 mM L-glutamine, 10% FCS. Cultures were plated at a density of 1×10^6 cells per well of 6-well plates and incubated at 37° C. in 5% CO2 in air in a humidified incubator. The following day, cultures were washed 2× with PBS, and serial dilutions of cell lysates (0.8 ml/well) were adsorbed onto triplicate dishes for 4 hours at 37° C. Cell lysates were prepared by 4 freeze-thaw cycles. Following adsorption, inoculum was removed, and cultures were overlaid with agar containing medium. Cultures were stained with neutral red 2 days post-inoculation, and plaque formation was assessed the next day.

NC(=O)NO [HU, hydroxyurea]
Effect on β-galactosidase expression [1]: neither FUdR nor HU had significant effects
Viral titer, cells treated with HU and FUdR (G207; 1 mM HU and 10 nM FUdR, 36 hours pi): 2.1±0.5×10^4 pfu
Viral titer, cells treated with HU alone (G207; 1 mM HU from 8 hours pi, 36 hours pi): 1.9±0.5×10^4 pfu
Suppression of viral replication (G207; 1 mM HU, HCT8 cells): 90%
